According to publication PMC7334220, “Diamond Blackfan anemia is mediated by hyperactive Nemo-like kinase” (Nature Communications, 2020):

Biological target: T1, NLK (Homo sapiens, UniProt Q9UBE8)
T1 construct: NLK, p38, or ALK5 for in vitro kinase assays were immunopurified from Kp53A1 cells; endogenous in cells; immunoprecipitated with anti-NLK (Abcam AB97642)
T1 sequence (Q9UBE8 1-527): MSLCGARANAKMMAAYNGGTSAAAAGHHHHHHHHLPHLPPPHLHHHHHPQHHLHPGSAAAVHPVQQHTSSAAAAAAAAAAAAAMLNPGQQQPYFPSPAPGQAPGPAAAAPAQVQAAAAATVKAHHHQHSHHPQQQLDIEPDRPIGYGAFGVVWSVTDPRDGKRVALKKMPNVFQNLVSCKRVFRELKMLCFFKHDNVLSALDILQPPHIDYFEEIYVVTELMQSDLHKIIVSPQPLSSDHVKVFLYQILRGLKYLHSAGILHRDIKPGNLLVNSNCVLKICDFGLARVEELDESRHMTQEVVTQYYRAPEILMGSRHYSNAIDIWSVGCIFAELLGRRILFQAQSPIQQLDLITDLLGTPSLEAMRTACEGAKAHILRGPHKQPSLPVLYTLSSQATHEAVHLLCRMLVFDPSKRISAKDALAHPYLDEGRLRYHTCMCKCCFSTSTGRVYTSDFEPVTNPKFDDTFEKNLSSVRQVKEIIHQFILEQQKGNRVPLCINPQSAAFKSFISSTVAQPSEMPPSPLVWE
Assay: DiscoveRX kinase profile analysis of SD208, NLK
Assay type: biochemical
Conditions: kinase profiling, Supplementary Fig. 2a
Protocol: Supplementary Fig. 2. SD208 and NLK siRNA are specific. (a) The top 22 hits from DiscoveRX kinase profile analysis of SD208. (b) Human cord blood CD34+ progenitors were transduced shRNA against luciferase (shLuc) or RPS19 (shRPS19) and differentiated in erythroid media in the presence […]
days. Cells were counted and assessed for cell surface expression of CD235. Effective inhibition of p38 activity was assessed by lysis of treated controls and Western blot analysis of pp38. (c) Cord blood CD34+ progenitors were transduced with shRNA against RPS19 and either non-targeting (NT) or 1 of 3 different shRNA sequences against NLK. After sorting, cells were differentiated for 12 days. Lysates were subjected to qRT-PCR to assess NLK expression (Upper) and the number of CD235+ erythroblasts was determined by flow cytometry and is expressed relative to erythroid expansion of control cells (Lower). (d) Kp53A1 cells were untransfected (Unt), transfected with a non-targeting sequence (NT), or siRNA against NLK (siNLK). Phosphorylation status of p38, JNK and ERK was determined by treating transfected Kp53A1 cells EPO prior to Western blot analysis for pp38, pJNK and pERK. Transfected cells were cultured for 48 hours prior to lysis. Lysates were subjected to SDS-PAGE and protein expression of the listed proteins was determined by Western blot analysis. […]

Fc1ccc(Cl)cc1-c1nc(Nc2ccncc2)c2nccnc2n1 [SD208] was tested. Which inhibition at 10 µM did it give?
The inhibition at 10 µM was 96.8%.
